The text below walks through data of paper PMC8270334, “Design, Sustainable Synthesis and Biological Evaluation of a Novel Dual α2A/5-HT7 Receptor Antagonist with Antidepressant-Like Properties” (Molecules, 2021).

The target in assay [1] is T1, human 5-HT1A receptor (Homo sapiens, UniProt P08908).
T1 construct: expressed in transfected cells; host or cells: HEK293
T1 sequence (P08908 1-422): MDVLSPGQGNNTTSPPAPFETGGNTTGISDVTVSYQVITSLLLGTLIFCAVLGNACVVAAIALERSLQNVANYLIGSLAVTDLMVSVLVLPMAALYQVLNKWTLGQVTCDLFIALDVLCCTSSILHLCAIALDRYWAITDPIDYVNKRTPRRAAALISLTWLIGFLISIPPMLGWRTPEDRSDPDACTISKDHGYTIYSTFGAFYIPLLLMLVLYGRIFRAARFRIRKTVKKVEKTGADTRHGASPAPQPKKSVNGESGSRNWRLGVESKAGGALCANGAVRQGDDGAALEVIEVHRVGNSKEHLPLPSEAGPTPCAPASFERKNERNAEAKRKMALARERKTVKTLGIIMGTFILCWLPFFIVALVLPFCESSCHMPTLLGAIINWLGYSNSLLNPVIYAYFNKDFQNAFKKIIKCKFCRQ
The assay is described as follows: radioligand binding, [3H]-8-OH-DPAT displacement at 5-HT1AR in HEK293 cells. The note with it: HEK-293 cells, ± SEM. On the procedure:
All experiments were performed using HEK293 cells stably expressing human 5-HT1A, 5-HT6, 5-HT7b, and D2L receptors or CHO-K1 cells with a plasmid containing the human 5-HT2A receptor coding sequence (PerkinElmer, Waltham, MA, USA), according to previously reported procedures. Cells were cultured in 150 cm^2 flasks and, after reaching a 90% confluence, were washed with PBS and the centrifugated (200 g) in PBS containing 0.1 mM EDTA and 1 mM dithiothreitol. Cell pellets were subsequently homogenized (in Ultra Turrax tissue homogenizer) and centrifugated twice (35,000× g for 15 min at 4 °C), with 15 min incubation at 37 °C between the centrifugations. All assays were incubated in dedicated buffers and in a total volume of 200 µL in 96-well microtitre plates for 1 h at 37 °C, except for 5-HT1AR and 5-HT2AR that was incubated for 1 h at room temperature. The process of equilibration is terminated by rapid filtration through Unifilter-96 (PerkinElmer) plates with a 96-well cell harvester and radioactivity retained on the filters was quantified on a Microbeta plate reader (PerkinElmer, USA). For displacement studies, the following assay samples containing the proper radioligand were used: 2.5 nM [^3H]-8-OH-DPAT (PerkinElmer, #NET929001MC) for 5-HT1AR; 1 nM [^3H]-ketanserin (PerkinElmer, #NET791250UC) for 5-HT2AR; 2 nM [^3H]-LSD (PerkinElmer, #NET638250UC) for 5-HT6R; and 0.8 nM [^3H]-5-CT (PerkinElmer, #NET1188U100UC) for 5-HT7R or 2.5 nM [^3H]-raclopride (PerkinElmer, #NET975001MC) for D2LR. Non-specific binding was determined using 10 μM 5-HT for 5-HT1AR and 5-HT7R, 20 μM mianserin for 5-HT2AR, 10 μM methiothepine for 5-HT6R, and 10 μM haloperidol for D2LR. […] Results were expressed as means of at least three separate experiments.

The target in assay [2] is T2, α2B-adrenergic receptor (Homo sapiens, UniProt P18089).
T2 sequence (P18089 1-450): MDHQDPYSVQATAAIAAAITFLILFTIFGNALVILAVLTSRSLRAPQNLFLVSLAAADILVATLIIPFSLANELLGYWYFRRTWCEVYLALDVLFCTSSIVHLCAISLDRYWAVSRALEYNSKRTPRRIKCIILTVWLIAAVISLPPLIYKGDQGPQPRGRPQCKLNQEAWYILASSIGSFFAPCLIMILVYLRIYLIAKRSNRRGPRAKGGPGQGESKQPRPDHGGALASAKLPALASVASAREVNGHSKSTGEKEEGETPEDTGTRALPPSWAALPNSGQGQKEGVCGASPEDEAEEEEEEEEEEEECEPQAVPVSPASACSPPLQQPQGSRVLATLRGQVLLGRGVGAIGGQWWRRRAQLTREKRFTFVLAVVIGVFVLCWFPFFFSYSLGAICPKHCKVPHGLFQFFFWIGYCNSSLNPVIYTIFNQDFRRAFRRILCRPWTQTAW
The assay is described as follows: intrinsic activity (antagonist) assay, α2B AequoScreen cell line, aequorin calcium mobilization. The class given is cell-based. The note with it: AequoScreen cells, ± SEM, two independent experiments. On the procedure:
The intrinsic activity assays for the α2B-adrenergic receptor were assessed by luminescence detection of calcium mobilization using the recombinant expressed jellyfish photoprotein, aequorin. Measurements were performed with adrenergic α2B AequoScreen cell line (PekinElmer). The cell density in 96-well format measurements was 5000 cells per well. Cell harvesting, coelenterazine h (Invitrogen, cat. no. C 6780) loading and preparation were done according to instructions presented in the AequoScreen Starter Kit Manual (PerkinElmer). Compound concentration series (50 μL/well) were diluted in 0.1% BSA (Intergen) containing assay buffer (D-MEM/F-12, Invitrogen cat. no. 11039) and prepared in white ½ Area Plate–96 well microplates (PerkinElmer,). The cell suspension was dispensed on the ligands using the POLARstar optima reader injectors. For the antagonist assay, cells were injected (50 μL) into the assay plate with antagonists (50 μL) using the POLARstar optima reader. The antagonist dilution series with four replicates were prepared as instructed in the AequoScreen Starter Kit Manual at the concentrations from 10^–11 to 10^–6 M/L. The agonist used for […] was Oxymetazoline (Sigma, cat. no. O2378), which at a single concentration was injected (50 μL, final concentration EC80) on the preincubated (15–20 min) mixture of cells and antagonist, and the emitted light was recorded for 20 s.
In general terms: Calcium flux is commonly read through the fluorescence of an indicator in the cells.

Assay [3] addresses T3, 5-HT1AR (Homo sapiens, UniProt P08908).
T3 construct: Eurofins Scientific, France
T3 sequence (P08908 1-422): T1 sequence (P08908 1-422)
The experiment in a line: functional profiling at 5-HT1AR, cAMP-based assays (Eurofins). It counts as cell-based. The note with it: cAMP-based assay; for 5-HT1AR antagonist property: at 1 µM; for EC50: read-out: 5-HT1AR agonist activity EC50.

`CC1(C)Cc2cccc(OCCN3CCC(NS(=O)(=O)c4ccc(F)cc4)CC3)c2O1` [Compound 6, 4-Fluoro-N-{1-[2-(2,2-dimethyl-2,3-dihydrobenzofuran-7-yloxy)ethyl]piperidin-4-yl} benzenesulfonamide] yielded an inhibition constant Ki in assay [1] of 221 ± 25 nM. For the same compound, the Kb in assay [2] stood at 103 ± 25 nM. Moreover, in assay [3], the 5-HT1AR antagonist property result is given as “no antagonist property” and the EC50 was more than 4000 nM.

`CC1(C)Cc2cccc(OCCN3CCC(NS(=O)(=O)c4cc(Cl)ccc4F)CC3)c2O1` [Compound 8, 5-Chloro-2-fluoro-N-{1-[2-(2,2-dimethyl-2,3-dihydrobenzofuran-7-yloxy)ethyl]piperidin-4-yl}benzenesulfonamide] had a Ki in assay [1] of 260 ± 29 nM. Besides, the Kb in assay [2] worked out at 142 ± 31 nM. For the same compound, in assay [3], the 5-HT1AR antagonist property result is “no antagonist property” and the half-maximal effective concentration (EC50) is more than 4000 nM.

`CC1(C)Cc2cccc(OCCN3CCC(NS(=O)(=O)c4cncc5ccccc45)CC3)c2O1` [Compound 13, 4-Isoquinoline-N-{1-[2-(2,2-dimethyl-2,3-dihydrobenzofuran-7-yloxy)ethyl]piperidin-4-yl}sulfonamide] had a Ki in assay [1] of 260 ± 18 nM. Further, the antagonist equilibrium constant (Kb) in assay [2] is 27 ± 13 nM. Moreover, in assay [3], the 5-HT1AR antagonist property result was “no antagonist property” and the EC50 is more than 4000 nM.

The term Ki denotes a measure of affinity in units of concentration, obtained from inhibition or displacement. Low readings indicate a stronger hold on the target, high ones a looser hold on the target. By Kb is commonly meant the affinity of an antagonist, worked out from how it opposes an agonist. A word on the EC50: it is the midpoint of the concentration-response curve.
